# Key:
# Format in all cases: in vivo, human
# [1] = test system: healthy, drug-free male volunteers; assay: Pupillometry (pupillary miosis) in healthy volunteers
# Procedure: Pulse oximetry and capnography data were collected continuously using a GE Carescape B650 monitoring system from 2 hours prior to dosing and until six hours after dosing, and thereafter at 12, 24, 48 and 72 hours post-dosing. […] Pupillary miosis was assessed by pupillometry.
# Summary statistics (means, standard deviations, and coefficients of variation) were determined for each dose group for safety laboratory test data, ECG and pharmacokinetic parameters, and pharmacodynamic variables. Categorical variables were analysed using counts and percentages. Dose-proportionality of AUC and Cmax was assessed using linear regression. The effect of dose on pharmacodynamic parameter values over time was assessed using two-factor analysis of variance (ANOVA). Pairwise comparisons (with Tukey-Kramer adjustment) between each dose group to the placebo were conducted at each time point using the least squares estimates obtained from the ANOVA, using SAS Proc Mixed (SAS ver 6.0).
# [2] = test system: opioid-dependent participants; assay: Treatment emergent adverse events in opioid-dependent participants (randomized, placebo-controlled, double-blind trial)
# Procedure: (§1) The efficacy of noribogaine in humans was evaluated in opioid-dependent participants in a randomized, placebo-controlled, double-blind trial. […] See U.S. application Ser. No. 14/214,157, filed Mar. 14, 2014 and Ser. No. 14/346,655, filed Mar. 21, 2014, which are incorporated herein by reference in their entireties.
# (§2) Three cohorts of nine (9) subjects (6 administered noribogaine and 3 administered placebo in each cohort) were evaluated for tolerability, pharmacokinetics, and efficacy. Cohort 1 received a single dose of 60 mg noribogaine or placebo. Cohort 2 received a single dose of 120 mg noribogaine or placebo. Cohort 3 received a single dose of 180 mg noribogaine or placebo. […] Headaches were frequent in the placebo and 60 mg noribogaine treatment groups, but were attenuated in the 120 mg and 180 mg dose groups.
# [3] = test system: opioid-dependent participants; assay: Time to resumption of opioid substitution treatment (OST) in opioid-dependent participants
# Procedure: as §1, §2
# [4] = test system: opioid-dependent participants; assay: QT interval evaluation in opioid-dependent participants; details: opioid-dependent patients, first 24 hours post administration, 60-180 mg
# Procedure: Patients' QT intervals were evaluated at regular time points throughout the study.
# [5] = opioid-dependent patients, 60, 120 or 180 mg single dose
# [6] = opioid-dependent patients, single 60 mg dose, N = 6
# [7] = opioid-dependent patients, single 120 mg dose, N = 6
# [8] = opioid-dependent patients, single 180 mg dose, N = 6
compound,measurement,setting,value
CCC1CC2CC3c4[nH]c5ccc(O)cc5c4CCN(C2)C13 (stereo not drawn) [Noribogaine],"pupil diameter, each dose group compared with placebo by ANOVA","[1]; after adjusting for baseline differences, p>0.9",no statistically significant differences
same,pupillary constriction,"[1]; healthy volunteers, 3-60 mg single oral dose",no evidence of pupillary constriction
same,Headaches,"[2]; opioid-dependent patients, 60 mg treatment group",frequent
same,Headaches,"[2]; opioid-dependent patients, 120 mg dose group",attenuated
same,Headaches,"[2]; opioid-dependent patients, 180 mg dose group",attenuated
same,adverse effects of noribogaine observed,[2]; [5],Few adverse effects
same,hallucinatory effects,[2]; [5],no hallucinatory effects
same,Treatment Emergent Adverse Events: Catheter Site Infection,[2]; [6],0
same,Treatment Emergent Adverse Events: Catheter Site Pain,[2]; [6],0
same,Treatment Emergent Adverse Events: Catheter Site Related Reaction,[2]; [6],0
same,Treatment Emergent Adverse Events: Cellulitis,[2]; [6],0
same,Treatment Emergent Adverse Events: Diarrhoea,[2]; [6],0
same,Treatment Emergent Adverse Events: Dry Mouth,[2]; [6],0
same,Treatment Emergent Adverse Events: Ear and Labyrinth Disorders,[2]; [6],0
same,Treatment Emergent Adverse Events: Epistaxis,[2]; [6],0
same,Treatment Emergent Adverse Events: Euphoric Mood,[2]; [6],0
same,Treatment Emergent Adverse Events: General Disorders and Administration Site Conditions,[2]; [6],0
same,Treatment Emergent Adverse Events: Hyperaesthesia,[2]; [6],0
same,Treatment Emergent Adverse Events: Infections and Infestations,[2]; [6],0
same,Treatment Emergent Adverse Events: Limb Discomfort,[2]; [6],0
same,Treatment Emergent Adverse Events: Malaise,[2]; [6],0
same,Treatment Emergent Adverse Events: Nausea,[2]; [6],0
same,Treatment Emergent Adverse Events: Oropharyngeal Pain,[2]; [6],0
same,Treatment Emergent Adverse Events: Pseudoparalysis,[2]; [6],0
same,"Treatment Emergent Adverse Events: Respiratory, Thoracic and Mediastinal Disorders",[2]; [6],0
same,Treatment Emergent Adverse Events: Rhinorrhoea,[2]; [6],0
same,Treatment Emergent Adverse Events: Skin Discomfort,[2]; [6],0
same,Treatment Emergent Adverse Events: Skin Irritation,[2]; [6],0
same,Treatment Emergent Adverse Events: Skin and Subcutaneous Tissue Disorders,[2]; [6],0
same,Treatment Emergent Adverse Events: Somnoience,[2]; [6],0
same,Treatment Emergent Adverse Events: Tinnitus,[2]; [6],0
same,Treatment Emergent Adverse Events: Tremor,[2]; [6],0
same,Treatment Emergent Adverse Events: Urinary Tract Infection,[2]; [6],0
same,Treatment Emergent Adverse Events: Vomiting,[2]; [6],0
same,Treatment Emergent Adverse Events: Back Pain,[2]; [7],0
same,Treatment Emergent Adverse Events: Catheter Site Infection,[2]; [7],0
same,Treatment Emergent Adverse Events: Catheter Site Related Reaction,[2]; [7],0
same,Treatment Emergent Adverse Events: Depressed Mood,[2]; [7],0
same,Treatment Emergent Adverse Events: Dry Eye,[2]; [7],0
same,Treatment Emergent Adverse Events: Dyspepsia,[2]; [7],0
same,Treatment Emergent Adverse Events: Euphoric Mood,[2]; [7],0
same,Treatment Emergent Adverse Events: Limb Discomfort,[2]; [7],0
same,Treatment Emergent Adverse Events: Malaise,[2]; [7],0
same,Treatment Emergent Adverse Events: Musculoskeletal and Connective Tissue Disorders,[2]; [7],0
same,Treatment Emergent Adverse Events: Psychiatric Disorders,[2]; [7],0
same,Treatment Emergent Adverse Events: Somnoience,[2]; [7],0
same,Treatment Emergent Adverse Events: Urinary Tract Infection,[2]; [7],0
same,Treatment Emergent Adverse Events: Catheter Site Infection,[2]; [8],0
same,Treatment Emergent Adverse Events: Catheter Site Pain,[2]; [8],0
same,Treatment Emergent Adverse Events: Depressed Mood,[2]; [8],0
same,Treatment Emergent Adverse Events: Diarrhoea,[2]; [8],0
same,Treatment Emergent Adverse Events: Dry Eye,[2]; [8],0
same,Treatment Emergent Adverse Events: Dyspepsia,[2]; [8],0
same,Treatment Emergent Adverse Events: Ear and Labyrinth Disorders,[2]; [8],0
same,Treatment Emergent Adverse Events: Epistaxis,[2]; [8],0
same,Treatment Emergent Adverse Events: Euphoric Mood,[2]; [8],0
same,Treatment Emergent Adverse Events: Hyperaesthesia,[2]; [8],0
same,Treatment Emergent Adverse Events: Malaise,[2]; [8],0
same,Treatment Emergent Adverse Events: Oropharyngeal Pain,[2]; [8],0
same,Treatment Emergent Adverse Events: Pseudoparalysis,[2]; [8],0
same,Treatment Emergent Adverse Events: Psychiatric Disorders,[2]; [8],0
same,"Treatment Emergent Adverse Events: Respiratory, Thoracic and Mediastinal Disorders",[2]; [8],0
same,Treatment Emergent Adverse Events: Rhinorrhoea,[2]; [8],0
same,Treatment Emergent Adverse Events: Skin Discomfort,[2]; [8],0
same,Treatment Emergent Adverse Events: Skin Irritation,[2]; [8],0
same,Treatment Emergent Adverse Events: Skin and Subcutaneous Tissue Disorders,[2]; [8],0
same,Treatment Emergent Adverse Events: Somnoience,[2]; [8],0
same,Treatment Emergent Adverse Events: Tinnitus,[2]; [8],0
same,Treatment Emergent Adverse Events: Tremor,[2]; [8],0
same,average time to resumption of opioids,"[3]; opioid-dependent patients, single 120 mg dose",greater than 20 hours
same,Time to resumption of OST compared with untreated patients or 60 mg noribogaine,[3]; single 180 mg dose,longer than untreated patients
same,QT interval prolongation (ΔQTc1),[4],dose-dependent increase in QT interval prolongation

# From patent US20150258106A1, “METHODS FOR ACUTE AND LONG-TERM TREATMENT OF SUBSTANCE ABUSE” (DEMERX, INC., priority 2014, published 2015)
